Structures can show the parent of a compound that is named as a salt. Where two headings read alike, the source gives them in different places.

In one assay the target is T1, human M3 receptor (Homo sapiens, UniProt P20309).
T1 construct: expressed in transfected cells; host or cells: CHO cells
The assay can be described thus: Test for binding to human M3 receptor. A digest of the protocol:
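CHO-cell crude membranes expressing human M3 were incubated with [N-methyl-3H]-(−)-scopolamine methyl chloride in 50 mM Tris-HCl, 0.5 mM EDTA, pH 7.4, for 60 min at room temperature. Bound ligand was collected on PEI-pretreated glass-fibre filters and counted by liquid scintillation. Ki was calculated from IC50 and the radioligand Kd.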

The next assay concerns muscarine M3 receptor. The experiment in a line: Effect of suppressing methacholine-induced airway contraction (in vivo, intratracheal administration). On the set-up: species or system guinea pig. Conditions: guinea pigs, intratracheal administration 60 minutes before 30 μg/kg i.v. methacholine; AUC of increase in airway pressure over 10 minutes. A digest of the protocol:
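Anesthetized, gallamine-paralysed, ventilated male Hartley guinea pigs (350–550 g); compound in 5% glucose given intratracheally 60 min before 30 μg/kg i.v. methacholine. Airway pressure AUC over 10 min scored; ID50 from inhibition versus 5% glucose vehicle group.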

The target of another assay is T2, neurokinin NK2 receptor (Cavia porcellus, UniProt Q64077).
T2 construct: Using healthy guinea pigs (body weight, 350 to 550 g; Hartley male guinea pigs); from tissue; host or cells: live anaesthetised Hartley male guinea pigs (airway, in vivo)
T2 sequence (Q64077 1-402): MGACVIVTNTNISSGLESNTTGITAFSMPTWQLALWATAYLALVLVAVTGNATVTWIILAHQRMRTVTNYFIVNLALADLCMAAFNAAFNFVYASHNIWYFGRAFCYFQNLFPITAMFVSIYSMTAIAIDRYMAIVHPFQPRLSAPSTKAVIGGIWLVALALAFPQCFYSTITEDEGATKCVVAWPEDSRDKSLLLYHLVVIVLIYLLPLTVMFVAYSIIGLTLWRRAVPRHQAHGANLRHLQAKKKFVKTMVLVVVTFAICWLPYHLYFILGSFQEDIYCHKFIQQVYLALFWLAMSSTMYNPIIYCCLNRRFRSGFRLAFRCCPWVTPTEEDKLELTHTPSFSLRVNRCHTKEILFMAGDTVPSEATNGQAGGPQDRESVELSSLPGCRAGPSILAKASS
The experiment in a line: Effect of suppressing neurokinin A-induced airway contraction (in vivo, intratracheal administration). Details: species or system guinea pig. Conditions: guinea pig; guinea pigs, intratracheal administration 60 minutes before 4 μg/kg i.v. NKA; AUC of increase in airway pressure over 10 minutes; read-out: ID50 (the source's name). How it is done: Using healthy guinea pigs (body weight, 350 to 550 g; Hartley male guinea pigs), the effect of suppressing airway contraction induced by neurokinin A (NKA), which is an NK2 receptor agonist, was examined by a modified method of Konzett-Roessler (Naunyn-Schmiedebergs Arch. Exp. Pathol. Pharmakol. 195, 71 [1940]) using airway pressure as an indicator.
A tracheal cannula and a venous cannula were attached to a guinea pig anesthetized with pentobarbital (50 mg/mL solution, 0.40 to 0.50 mL/body, subcutaneous administration). An arterial cannula filled with heparin-containing physiological saline (100 U/mL) was further attached, and blood pressure and heart rate were monitored via an amplifier and an instantaneous heart rate meter. Subsequently, gallamine (20 mg/body, intravenous administration) was administered to terminate spontaneous breathing, and 10 mL/kg of positive pressure breathing (Ugo-Basile Biological Research Apparatus, Cat. No. 7025) was rapidly performed at 60 times/min. The airway pressure during artificial breathing was detected with a pressure transducer (TP-200T or TP-400T; Nihon Kohden Corporation) attached to a side branch of the tracheal cannula, amplified (AP-601G; Nihon Kohden Corporation), and recorded in a recorder. After the airway pressure, blood pressure, and heart rate were stabilized, 4 μg/kg of NKA was intravenously administered from the venous cannula to induce airway contraction, and the airway pressure was measured for the following 10 minutes.
The test substance was dissolved in a 5% glucose solution, and a 0.5 mL/kg solution was intratracheally administered with an intratracheal administration apparatus (model 1A-1B; Penn-Century, Inc.) 60 minutes before stimulation with NKA.
The AUC of increase in the airway pressure over 10 minutes after administration of NKA was determined as the intensity of NKA-induced airway contraction and calculated as an ID50 value from the inhibition rate based on the value of the control group (5% glucose solution intratracheal administration group).

T1 sequence (P20309 whole entry): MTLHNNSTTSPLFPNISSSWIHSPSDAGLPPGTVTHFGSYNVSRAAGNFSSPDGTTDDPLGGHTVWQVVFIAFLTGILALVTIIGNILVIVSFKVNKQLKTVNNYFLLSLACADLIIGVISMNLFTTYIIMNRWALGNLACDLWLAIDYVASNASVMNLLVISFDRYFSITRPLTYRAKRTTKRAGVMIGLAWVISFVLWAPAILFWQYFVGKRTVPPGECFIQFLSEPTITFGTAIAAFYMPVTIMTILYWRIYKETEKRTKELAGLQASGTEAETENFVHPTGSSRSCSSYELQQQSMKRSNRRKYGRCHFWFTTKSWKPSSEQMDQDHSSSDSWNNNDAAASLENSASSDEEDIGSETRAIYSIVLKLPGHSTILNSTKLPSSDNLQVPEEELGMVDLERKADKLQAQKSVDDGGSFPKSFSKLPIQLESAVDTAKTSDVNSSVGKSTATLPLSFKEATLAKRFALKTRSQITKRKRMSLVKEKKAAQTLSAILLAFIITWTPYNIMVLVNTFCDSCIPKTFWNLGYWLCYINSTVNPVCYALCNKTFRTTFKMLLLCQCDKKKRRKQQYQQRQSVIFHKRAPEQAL

The Ki is the equilibrium dissociation constant of an inhibitor or competing ligand from its target. With `CN(CCN1CCC(OC(=O)Nc2ccccc2-c2ccccc2)CC1)C(=O)CCCCCN(C)c1ccc(C(=O)N(C)CCCN(C)C(=O)CO[C@H]2Cc3ccccc3C23CCN(CC[C@@]2(c4ccc(F)cc4)CN(C(=O)c4cc(C(F)(F)F)cc(C(F)(F)F)c4)CO2)CC3)cc1` [Example 76, 1-{2-[{6-[{4-[{3-[({[(2S)-1′-{2-[(5R)-3-[3,5-Bis(trifluoromethyl)benzoyl]-5-(4-fluorophenyl)-1,3-oxazolidin-5-yl]ethyl}-2,3-dihydrospiro[indene-1,4′-piperidin]-2-yl]oxy}acetyl)(methyl)amino]propyl}(methyl)carbamoyl]phenyl}(methyl)amino]hexanoyl}(methyl)amino]ethyl}piperidin-4-yl biphenyl-2-ylcarbamate], the Ki at human M3 receptor (CHO cells expressing human M3 receptor, [N-methyl-3H]-(-)-Scopolamine methyl chloride 0.5 nM, Ki from IC50 and Kd, read-out: Ki) worked out at 3.4 nM. This compound also yielded an ID50 with muscarine M3 receptor of 0.0292 mg/kg. The ED50 at neurokinin NK2 receptor was 0.0176 mg/kg.

Take `CN(CCN1CCC(OC(=O)Nc2ccccc2-c2ccccc2)CC1)C(=O)CCCCCNc1ccc(C(=O)N(CCCN(C)C(=O)CO[C@H]2Cc3ccccc3C23CCN(CC[C@@]2(c4ccc(F)cc4)CN(C(=O)c4cc(C(F)(F)F)cc(C(F)(F)F)c4)CO2)CC3)C2CC2)cc1` [Example 25, 1-(2-{[6-({4-[{3-[({[(2S)-1′-{2-[(5R)-3-[3,5-Bis(trifluoromethyl)benzoyl]-5-(4-fluorophenyl)-1,3-oxazolidin-5-yl]ethyl}-2,3-dihydrospiro[indene-1,4′-piperidin]-2-yl]oxy}acetyl)(methyl)amino]propyl}(cyclopropyl)carbamoyl]phenyl}amino)hexanoyl](methyl)amino}ethyl)piperidin-4-yl biphenyl-2-ylcarbamate trihydrochloride]: the Ki at human M3 receptor turned out to be 1.4 nM. In the assay on muscarine M3 receptor, this compound had an ID50 of 0.0459 mg/kg. In addition, on neurokinin NK2 receptor, the ED50 was 0.0727 mg/kg.

`CN(CCN1CCC(OC(=O)Nc2ccccc2-c2ccccc2)CC1)C(=O)CCCNc1ccc(C(=O)N(C)CCCN(C)C(=O)CO[C@H]2Cc3ccccc3C23CCN(CC[C@@]2(c4ccc(F)cc4)CN(C(=O)c4cc(C(F)(F)F)cc(C(F)(F)F)c4)CO2)CC3)cc1` [Example 34, 1-(2-{[4-({4-[{3-[({[(2S)-1′-{2-[(5R)-3-[3,5-Bis(trifluoromethyl)benzoyl]-5-(4-fluorophenyl)-1,3-oxazolidin-5-yl]ethyl}-2,3-dihydrospiro[indene-1,4′-piperidin]-2-yl]oxy}acetyl)(methyl)amino]propyl}(methyl)carbamoyl]phenyl}amino)butanoyl](methyl)amino}ethyl)piperidin-4-yl biphenyl-2-ylcarbamate trihydrochloride]: at human M3 receptor, the Ki came out at 1.5 nM. Also, the ID50 with muscarine M3 receptor turned out to be 0.0251 mg/kg. Besides, the ED50 on neurokinin NK2 receptor is 0.03 mg/kg.

`Cc1cc(NCCCCCC(=O)N(C)CCN2CCC(OC(=O)Nc3ccccc3-c3ccccc3)CC2)ccc1C(=O)N(C)CCCN(C)C(=O)CO[C@H]1Cc2ccccc2C12CCN(CC[C@@]1(c3ccc(F)cc3)CN(C(=O)c3cc(C(F)(F)F)cc(C(F)(F)F)c3)CO1)CC2` [Example 18, 1-(2-{[6-({4-[{3-[({[(2S)-1′-{2-[(5R)-3-[3,5-Bis(trifluoromethyl)benzoyl]-5-(4-fluorophenyl)-1,3-oxazolidin-5-yl]ethyl}-2,3-dihydrospiro[indene-1,4′-piperidin]-2-yl]oxy}acetyl)(methyl)amino]propyl}(methyl)carbamoyl]-3-methylphenyl}amino)hexanoyl](methyl)amino}ethyl)piperidin-4-yl biphenyl-2-ylcarbamate trihydrochloride] showed a Ki on human M3 receptor of 1.2 nM. For the same compound, the ID50 with muscarine M3 receptor was 0.0389 mg/kg. Moreover, on neurokinin NK2 receptor, the ED50 turned out to be 0.0453 mg/kg.

The values are drawn from US8476253B2, “Amide derivative” (Daiichi Sankyo Company, Limited, priority 2009, dated 2013).
